Where two headings read alike, the source gives them in different places.
Key:
human CLK1 = target: T1, human CLK1 (Homo sapiens, UniProt P49759); assay: CLK1 enzyme assay (ADP-Glo); format: biochemical
T1 construct: Recombinant human CLK1 (129-end); GST (N); purchased SignalChem C57-11G; host or cells: Sf9 insect cells
In short: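 GST-tagged CLK1 (129-end, Sf9-expressed) at 16 nM was preincubated with compound 30 min at 25 °C in 40 mM Tris pH 7.5, 20 mM MgCl2, 0.1 mg/ml BSA, 50 μM DTT. Reaction with 2 μM substrate and 10 μM ATP ran 60 min at 25 °C. ADP-Glo luminescence gave IC50 by four-parameter fit.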

[1] = system: Neonatal Rat Ventricular Myocytes (NRVMs); assay: Myocyte proliferation assay (EdU assay) in neonatal rat ventricular myocytes; format: cell-based; conditions: growth relative to blank myocyte growth without compound added; for Avg 1 uM (average myocyte proliferation): compound 1 uM; for Avg 3 uM (average myocyte proliferation): compound 3 uM; for Avg 10 uM (average myocyte proliferation): compound 10 uM
In short: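 After 36 h compound exposure (1, 3 or 10 uM in 6% FBS/ITS DMEM, following 24 h low-serum culture), NRVMs were pulsed with EdU for 12 h. Proliferation scored by automated confocal imaging of EdU click chemistry, ab8295 immunostaining and DAPI nuclei in fixed cultures.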

[2] = ADP-Glo, ATP 10 μM, read-out: CLK1 IC50

T1 sequence (P49759 129-484 limits assumed): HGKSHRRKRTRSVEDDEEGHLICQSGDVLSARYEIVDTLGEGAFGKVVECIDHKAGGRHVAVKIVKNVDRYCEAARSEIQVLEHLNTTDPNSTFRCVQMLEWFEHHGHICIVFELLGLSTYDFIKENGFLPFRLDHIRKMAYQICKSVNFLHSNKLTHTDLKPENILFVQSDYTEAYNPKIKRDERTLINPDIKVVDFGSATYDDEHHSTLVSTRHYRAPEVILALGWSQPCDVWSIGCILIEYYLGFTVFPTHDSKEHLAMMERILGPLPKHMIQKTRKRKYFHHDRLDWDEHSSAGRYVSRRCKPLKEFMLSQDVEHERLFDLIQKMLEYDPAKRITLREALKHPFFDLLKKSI

IC50 (human CLK1; [2]) [nM] | Compound | Avg 1 uM (average myocyte proliferation) [1] | Avg 3 uM (average myocyte proliferation) [1] | Avg 10 uM (average myocyte proliferation) [1] | IC50 (human CLK1) [nM]
– | CC(=O)N(C1=N/C(=C\c2ccc3c(c2)OCO3)C(=O)N1)c1ccccc1 [Example 5, (Z)—N-(4-(benzo[d][1,3]dioxol-5-ylmethylene)-5-oxo-4,5-dihydro-1H-imidazol-2-yl)-N-phenylacetamide] | ** (10%-50%) | ** (10%-50%) | *** (>50%) | 100 to 1000
100 to 1000 | CN(C1=N/C(=C\c2ccc3ncccc3c2)C(=O)N1)c1ccc2ncsc2c1 [Example 85, (Z)-2-(benzo[d]thiazol-6-yl(methyl)amino)-5-(quinolin-6-ylmethylene)-3,5-dihydro-4H-imidazol-4-one] | * (<10% growth relative to blank myocyte growth without compound added.) | ** (10%-50%) | – | –
1000 to 10000 | CN(C1=N/C(=C\c2ccc3ncsc3c2)C(=O)N1)c1ccc2c(c1)ncn2C [Example 86, (Z)-5-(benzo[d]thiazol-6-ylmethylene)-2-(methyl(1-methyl-1H-benzo[d]imidazol-5-yl)amino)-3,5-dihydro-4H-imidazol-4-one] | ** (10%-50%) | ** (10%-50%) | – | –
> 10000 | CN(C1=N/C(=C\c2ccc3[nH]ccc3c2)C(=O)N1)c1ccc2ncsc2c1 [Example 87, (Z)-5-((1H-indol-5-yl)methylene)-2-(benzo[d]thiazol-6-yl(methyl)amino)-3,5-dihydro-4H-imidazol-4-one] | ** (10%-50%) | ** (10%-50%) | – | –
< 100 | CN1C(=O)/C(=C/c2ccc3ncsc3c2)N=C1Nc1ccc2ncsc2c1 [Example 88, (Z)-2-(benzo[d]thiazol-6-ylamino)-5-(benzo[d]thiazol-6-ylmethylene)-3-methyl-3,5-dihydro-4H-imidazol-4-one] | * (<10% growth relative to blank myocyte growth without compound added.) | * (<10% growth relative to blank myocyte growth without compound added.) | – | –
< 100 | COCCN(C1=N/C(=C\c2ccc3ncsc3c2)C(=O)N1)c1ccc2ncsc2c1 [Example 89, (Z)-2-(benzo[d]thiazol-6-yl(2-methoxyethyl)amino)-5-(benzo[d]thiazol-6-ylmethylene)-3,5-dihydro-4H-imidazol-4-one] | ** (10%-50%) | * (<10% growth relative to blank myocyte growth without compound added.) | – | –
< 100 | Cc1nc2ccc(NC3=N/C(=C\c4ccc5ncsc5c4)C(=O)N3)cc2s1 [Example 90, (Z)-5-(benzo[d]thiazol-6-ylmethylene)-2-((2-methylbenzo[d]thiazol-6-yl)amino)-3,5-dihydro-4H-imidazol-4-one] | ** (10%-50%) | ** (10%-50%) | – | –
< 100 | O=C1NC(Nc2ccc3ncsc3c2)=N/C1=C\c1cncs1 [Example 92, (Z)-2-(benzo[d]thiazol-6-ylamino)-5-(thiazol-5-ylmethylene)-3,5-dihydro-4H-imidazol-4-one] | * (<10% growth relative to blank myocyte growth without compound added.) | * (<10% growth relative to blank myocyte growth without compound added.) | – | –
< 100 | Cn1cnc2ccc(NC3=N/C(=C\c4ccc5ncsc5c4)C(=O)N3)cc21 [Example 93, (Z)-5-(benzo[d]thiazol-6-ylmethylene)-2-((1-methyl-1H-benzo[d]imidazol-6-yl)amino)-3,5-dihydro-4H-imidazol-4-one] | * (<10% growth relative to blank myocyte growth without compound added.) | ** (10%-50%) | – | –
> 10000 | O=C1NC(Nc2ccc3ncsc3c2)=N/C1=C\c1ccc2nccnc2c1 [Example 94, (Z)-2-(benzo[d]thiazol-6-ylamino)-5-(quinoxalin-6-ylmethylene)-3,5-dihydro-4H-imidazol-4-one] | * (<10% growth relative to blank myocyte growth without compound added.) | * (<10% growth relative to blank myocyte growth without compound added.) | – | –
> 10000 | O=C1NC(Nc2ccc3ncsc3c2)=N/C1=C\c1ccc2cn[nH]c2c1 [Example 95, (Z)-5-((1H-indazol-6-yl)methylene)-2-(benzo[d]thiazol-6-ylamino)-3,5-dihydro-4H-imidazol-4-one] | * (<10% growth relative to blank myocyte growth without compound added.) | * (<10% growth relative to blank myocyte growth without compound added.) | – | –
> 10000 | O=C1NC(=S)N/C1=C\c1ccc2sccc2c1 [Example 96, (Z)-5-(benzo[b]thiophen-5-ylmethylene)-2-thioxoimidazolidin-4-one] | * (<10% growth relative to blank myocyte growth without compound added.) | * (<10% growth relative to blank myocyte growth without compound added.) | – | –
100 to 1000 | O=C1NC(Nc2ccc3nc[nH]c3c2)=N/C1=C\c1ccc2ncsc2c1 [Example 97, (Z)-2-((1H-benzo[d]imidazol-6-yl)amino)-5-(benzo[d]thiazol-6-ylmethylene)-3,5-dihydro-4H-imidazol-4-one] | * (<10% growth relative to blank myocyte growth without compound added.) | * (<10% growth relative to blank myocyte growth without compound added.) | – | –
< 100 | O=C1NC(N(Cc2ccccc2)c2ccc3ncsc3c2)=N/C1=C\c1ccc2ncsc2c1 [Example 99, (Z)-2-(benzo[d]thiazol-6-yl(benzyl)amino)-5-(benzo[d]thiazol-6-ylmethylene)-3,5-dihydro-4H-imidazol-4-one] | ** (10%-50%) | * (<10% growth relative to blank myocyte growth without compound added.) | – | –
1000 to 10000 | CC(C)Nc1nc2ccc(NC3=N/C(=C\c4ccc5ncsc5c4)C(=O)N3)cc2s1 [Example 100, (Z)-5-(benzo[d]thiazol-6-ylmethylene)-2-((2-(isopropylamino)benzo[d]thiazol-6-yl)amino)-3,5-dihydro-4H-imidazol-4-one] | ** (10%-50%) | ** (10%-50%) | – | –
100 to 1000 | O=C1NC(Nc2ccc3sccc3c2)=N/C1=C\c1ccc2ncsc2c1 [Example 101, (Z)-2-(benzo[b]thiophen-5-ylamino)-5-(benzo[d]thiazol-6-ylmethylene)-3,5-dihydro-4H-imidazol-4-one] | ** (10%-50%) | * (<10% growth relative to blank myocyte growth without compound added.) | – | –

Compound | IC50 (human CLK1; [2]) [nM] | Avg 1 uM (average myocyte proliferation) [1] | Avg 3 uM (average myocyte proliferation) [1] | Avg 10 uM (average myocyte proliferation) [1] | IC50 (human CLK1) [nM]
CCN(C1=N/C(=C\c2ccc3c(c2)OCO3)C(=O)N1)c1ccccc1 [Example 4, (Z)-5-(benzo[d][1,3]dioxol-5-ylmethylene)-2-(ethyl(phenyl)amino)-3,5-dihydro-4H-imidazol-4-one] | 100 to 1000 | ** (10%-50%) | ** (10%-50%) | ** (10%-50%) | –
CC(=O)N(C1=N/C(=C\c2ccc3ncsc3c2)C(=O)N1)c1ccc2ncsc2c1 [Example 91, (Z)—N-(benzo[d]thiazol-6-yl)-N-(4-(benzo[d]thiazol-6-ylmethylene)-5-oxo-4,5-dihydro-1H-imidazol-2-yl)acetamide] | < 100 | * (<10% growth relative to blank myocyte growth without compound added.) | * (<10% growth relative to blank myocyte growth without compound added.) | – | –
Nc1ccc(NC2=N/C(=C\c3ccc4ncsc4c3)C(=O)N2)cc1 [Example 98, (Z)-2-((4-aminophenyl)amino)-5-(benzo[d]thiazol-6-ylmethylene)-3,5-dihydro-4H-imidazol-4-one] | < 100 | ** (10%-50%) | ** (10%-50%) | – | –

Reference: patent US12643887B2, “Heterocyclic derivatives with cardiomyocyte proliferation activity for treatment of heart diseases” (Tongji University, priority 2019, dated 2026)
